Assay results reported in US20220409521A1, “COMPOSITION FOR COSMETICS” (FE:I BEAUTY TECH, INC., priority 2021, published 2022).

System: Primary human dermal fibroblast (HDF) cells
Experiment: Ferritin induction in HDF cells (ferritin and protein by ELISA)
Format: cell-based
Settings: Example 1; 5 μM in culture media, 18 hours; vs cells with no treatment
Protocol: Primary human dermal fibroblast (HDF) cells were cultured in Dulbecco's modified eagle medium (DMEM) with GlutaMAX™ and 10% Fetal Bovine Serum (FBS) and 1% Streptomycin (antibiotics). Before treatment, cells were seeded in a 12-well plate (1 ml culture media and surface area of the well is approximately 4.0 cm^2 per well) overnight. After washing twice with cold phosphate buffered saline (PBS), HDF cells were starved in 0.1% FBS for overnight. Subsequently, cells were treated with ferrous sulfate septahydrate (FeSO4·7H2O) at a final concentration of 5 μM for additional 18 hours. Cells with no treatment were used as a control. Cells were then washed with PBS and lysed. Levels of ferritin and protein were measured by using commercially available enzyme-linked immunosorbent assays (ELISA) kits and quantitated with standard curves constructed with human liver ferritin and human serum albumin as standards. The results were expressed as μg ferritin per mg protein and are show in FIG. 2.
The two iron oxides were premixed homogeneously in a 50% (v/v) of water and tertraethylene glycol and incubated at 3 mg/ml overnight at room temperature in a sodium acetate buffer (10 mM, pH 5.0), mimicking the pHs of acid rain or sweat. […] After the foregoing treatment, cells were collected and levels of ferritin and proteins in cells were measured and calculated as described in Example 1. […]

With `O.O.O.O.O.O.O.O=S(=O)([O-])[O-].[Fe+2]` [ferrous sulfate, ferrous sulfate septahydrate (FeSO4·7H2O)] the “increase in level of ferritin compared to the control” value was 570%.
